Where two headings read alike, the source gives them in different places.
What was measured:
[1] = Spectrophotometric titration; assay type: binding; conditions: I = 2.0 M (Na+/H+)ClO4 at 20.0 °C, not marked potentiometry (spectrophotometric titration)
[2] = Spectrophotometric titration; assay type: binding; conditions: spectrophotometrically measured, I = 2.0 M (Na+/H+)ClO4, T = 25 ± 1 °C, ±3σ
Text: Changes in the optical absorption characteristics of Nd^3+ were monitored using a Cary 6000i UV/Vis–NIR Spectrometer (Agilent) using 1 cm semimicro quartz cuvettes (Starna) in double-beam mode, where the ^4I9/2 → ^4G5/2, ^2G7/2 transitions[34] were monitored between 560 and 605 nm with a 0.075 nm interval and 1.0 nm spectral bandwidth. Changes in the optical absorption characteristics of ^243Am^3+ and ^248Cm^3+ were monitored using a Flame-S-VIS–NIR-ES spectrometer coupled to a DH-2000-BAL dual-mode light source (Ocean Optics) with a single 1 cm semimicro quartz cuvette (Starna). […] The complexation of Am^3+ with the ligands was monitored in the 495–525 nm spectral region, looking at the ^7F0′ → ^5L6′ transition[23],[35]. For Cm^3+, ligand complexation was monitored in the 365–410 nm spectral region, looking at the ^8S7/2 → ^2Ji (i = {15}, {13,9}, {11,17}) manifold transitions[24],[25],[36]. Changes in aqueous p[H^+] were monitored throughout each titration step using a Gran-calibrated Orion Ross Semi-micro glass electrode. […] Finally, the spectroscopic data was analyzed using the HypSpec software package[33],[37]. […]
To further validate the competitive solvent extraction methodology the complexation of Am^3+ with H4octapa and Cm^3+ with H4pypa-peg was studied spectrophotometrically. […] The presence of both ligands induced new red-shifted absorption signatures in each monitored titration. […]

[3] = cited from earlier work

Compound: O=C(O)CN(CCN(CCN(CC(=O)O)CC(=O)O)CC(=O)O)CCN(CC(=O)O)CC(=O)O [H6ttha, triethylenetetraamine-N,N,N',N'',N''',N'''-hexaacetic acid]
- logβ121 (MH2L), Nd3+ [1]: 27.7(1)

Compound: O=C(O)CN(Cc1cc(-c2cn(CCOCCOCCO)nn2)cc(CN(CC(=O)O)Cc2cccc(C(=O)O)n2)n1)Cc1cccc(C(=O)O)n1 [H4pypa-peg, 6,6'-((((4-(1-(2-(2-(2-hydroxyethoxy)ethoxy)ethyl)-1H-1,2,3-triazol-4-yl)pyridine-2,6-diyl)bis–(methylene))bis–((carboxymethyl)azanediyl))bis–(methylene)) dipicolinic acid]
- logβ101 (ML), Cm3+ [2]: 20.37 (2)

Compound: O=C(O)CN(CCN(CC(=O)O)Cc1cccc(C(=O)O)n1)Cc1cccc(C(=O)O)n1 [H4octapa, 6,6′-((ethane-1,2-diylbis–((carboxymethyl)azanediyl))bis–(methylene))dipicolinic acid]
- pKa H2L2- ([3]; I = 0.15 M NaCl at 25 °C): 5.40 (1)
- pKa H3L- ([3]; I = 0.15 M NaCl at 25 °C): 3.65 (1)
- pKa H4L(aq) ([3]; I = 0.15 M NaCl at 25 °C): 2.97 (1)
- pKa H5L+ ([3]; I = 0.15 M NaCl at 25 °C): 1.66 (1)
- pKa HL3- ([3]; I = 0.15 M NaCl at 25 °C): 8.52 (1)
- pKa H2L2- ([3]; I = 0.16 M NaCl at 25 °C): 5.43 (2)
- pKa H3L- ([3]; I = 0.16 M NaCl at 25 °C): 3.75 (1)
- pKa H4L(aq) ([3]; I = 0.16 M NaCl at 25 °C): 3.08 (1)
- pKa H5L+ ([3]; I = 0.16 M NaCl at 25 °C): 2.21 (2)
- pKa H6L2+ ([3]; I = 0.16 M NaCl at 25 °C): 1.61 (2)
- pKa H7L3+ ([3]; I = 0.16 M NaCl at 25 °C): 0.12 (4)
- pKa HL3- ([3]; I = 0.16 M NaCl at 25 °C): 8.58 (1)

From PMC10587169, “Tuning aminopolycarboxylate chelators for efficient complexation of trivalent actinides” (Scientific Reports, 2023)
